Type in all cases: cell-based, human
The test system of assay [1] is Bx-PC3, MIAPaCa, MDA-Panc28, Panc1 and Capan-2 cells. The assay is described as follows: Growth inhibition in pancreatic cancer cell lines. Here is the method: (A) Different pancreatic cancer cell lines were treated with rottlerin (4 μM) for 48 h, and viable cells were detected by proliferation assay using Alamar Blue staining. Bars represent growth inhibition after normalizing untreated cells to 100%. (B) Growth of the indicated cell lines after treatment with rottlerin (4 μM) for 48 and 96 h.
Pancreatic cell lines MDA-Panc28, Capan-2, Bx-PC3, Panc1 and MIAPaCa were provided by Dr. Shrikant Reddy (M. D. Anderson Cancer Center). MDA-Panc28 and Bx-PC3 cell lines were maintained in RPMI-1640 medium supplemented with 10% fetal calf serum. Panc1 and MIAPaCa cell lines and Capan-2 cells were maintained in DMEM and McCoy's 5A, respectively. All media were supplemented with 10% fetal calf serum. For the cell proliferation experiments, cells were seeded at a density of 1-2×10^5 cells in T-25 tissue culture flasks. Twenty-four hours after the seeding, cells were treated with various concentrations of rottlerin for the indicated periods of time. Adherent cells were collected by trypsinization, and cell numbers were determined using a Neubauer cell counting chamber. All experiments were replicated at least two times.

The test system of the next assay is MDA-Panc28 cells. The experiment in a line: Acidic vesicular organelles / autophagy by acridine orange FACS. The note with it: 48 h, flow cytometry; control cells 8%. On the procedure: To detect and quantify acidic vesicular organelles, cells were stained with acridine orange as described previously. The number of acridine orange-positive cells was determined by fluorescence-activated cell sorting (FACS) analysis. Cell morphology was examined using phase-contrast and fluorescence microscopy (Nikon, Melville, N.Y., USA) with the cells remaining in their culture flasks.
Exponentially growing untreated MDA-Panc28 cells were plated 24 h before transfection. Plated cells were transfected with double-stranded siRNA targeting TG2 mRNA and control (non-silencing) siRNA (all from Qiagen, Venlo, Netherlands) and/or the green fluorescent protein (GFP) and microtubule-associated protein 1 light chain 3 (LC3) fusion vector (GFP-LC3) using the Qiagen transfection reagent according to the manufacturer's protocol. Two siRNA sequences targeting TG2 were designed using siRNA-designing software (Qiagen). PKCδ siRNA was obtained from Santa Cruz Biotechnology (Santa Cruz, Calif., USA). Untransfected cells and non-silencing control siRNA-transfected cells were used as negative controls. After treatment, the cells were harvested for western blot analysis or FACS analysis to determine whether autophagy had occurred.

Another assay relates to mTOR. The assay is described as follows: mTOR pathway phosphorylation in MDA-Panc28 cells (western blot). Here is the method: (A) Phosphorylated mTOR was detected after 48 h of treatment with various doses of rottlerin, cells were subjected to western blot analysis. Phosphorylation of mTOR was inhibited in a dose-dependent manner. (B) MDA-Panc28 cells were treated with a specific mTOR inhibitor, rapamycin (at either 20 nM or 100 nM), TG2 siRNA or left untreated.
After treatment, the cells were collected and centrifuged, and whole-cell lysates were obtained using a lysis buffer. Total protein concentration was determined using a DC protein assay kit (Bio-Rad, Hercules, Calif., USA). Rottlerin and mTOR inhibitor (rapamycin) were purchased from Calbiochem (La Jolla, Calif., USA). Aliquots containing 30 μg of total protein from each sample were subjected to sodium dodecyl sulfate-polyacrylamide gel electrophoresis (SDS-PAGE) with a 4-20% gradient and electrotransferred to nitrocellulose membranes. […] Mouse anti-β-actin and donkey anti-mouse secondary antibody were purchased from Sigma Chemical (St. Louis, Mo., USA) so that β-actin expression could be monitored to ensure equal loading of proteins. […] The blots were visualized with a Fluor Chem 8900 imager and quantified by a densitometer using the Alpha Imager application program (Alpha Innotech). […]
In general terms: Immunoblotting shows a protein as a band on a membrane.

The next assay concerns Beclin 1. The experiment in a line: Beclin 1 expression in MDA-Panc28 cells. The note with it: MDA-Panc28, data not shown.
The test system of the next assay is TG2. The assay is described as follows: TG2 expression in pancreatic cancer cell lines (western blot). The note with it: 4 μM for 48 h, all pancreatic cancer cell lines tested. On the procedure:
(A) A panel of pancreatic cancer cell lines including MDA-Panc28, Capan-2, Bx-PC3, Panc1 and MIAPaCa cells were treated with Rottlerin (4 μM) for 48 h for the detection of LC3-II and TG2 expression by western blot. (B) MCF-7 cell line was also tested for LC3-II and TG2 expression by western blot. (C) Expression of TG2 in MDA-Panc28 cells was determined upon exposure to different treatments (D) Detection of autophagolysosomes; MDA-Panc28 cells were treated with either control siRNA, Rottlerin or TG2 siRNA for 48 h. Photomicrographs show morphological changes of the cells by phase contrast microscopy (left panels); acridine orange staining of the acidic vesicular organelles by fluorescent microscopy (center panels) and the localization LC3-II at autophagosomes in cells after transfection with GFP-LC3 plasmid (right panels). […]
After treatment, the cells were collected and centrifuged, and whole-cell lysates were obtained using a lysis buffer. Total protein concentration was determined using a DC protein assay kit (Bio-Rad, Hercules, Calif., USA). […] Mouse anti-β-actin and donkey anti-mouse secondary antibody were purchased from Sigma Chemical (St. Louis, Mo., USA) so that β-actin expression could be monitored to ensure equal loading of proteins. […] The blots were visualized with a Fluor Chem 8900 imager and quantified by a densitometer using the Alpha Imager application program (Alpha Innotech). […]

Turning to `CC(=O)c1c(O)c(C)c(O)c(Cc2c(O)c3c(c(C(=O)/C=C/c4ccccc4)c2O)OC(C)(C)C=C3)c1O` [rottlerin], in assay [1] (4 μM for 48 h, five cell lines), the growth inhibition entry is on record as “induced growth inhibition in all five cell lines tested”. Besides, the “time course of growth inhibition” value in assay [1] (4 μM, 48 and 96 h, MDA-Panc28, Bx-PC3, MIAPaCa) was “time-dependent inhibition in cell growth of all three”. The “percentage of red fluorescein-positive cells (acidic vesicular organelles)” value in the assay with MDA-Panc28 cells was determined as 64%. In addition, in the assay on mTOR (MDA-Panc28, 48 h), the “phosphorylated mTOR (p-mTOR)” value was “downregulated phosphorylated mTOR (p-mTOR)”. Also, the p-p70S6K result in the assay with mTOR (MDA-Panc28, data not shown) is reported as “downregulated”. Also, the “Beclin 1 expression” value with Beclin 1 was “Expression levels did not change”. For the same compound, the TG2 expression entry in the assay on TG2 is listed as “parallel decrease in TG2 expression”.

Source of the values: patent US8299040B2, “Methods for treating cancer targeting transglutaminase” (Board of Regents, The University of Texas System, priority 2006, dated 2012).
